According to the OligoGym collection:
Values joined by “and” are separate entries in the source; they are usually repeats but may differ in a detail not shown here. Equal values may be shown once. After the bases stand the sugars from the 5' end (letter, count) and the backbone: PS all phosphorothioate, else s phosphorothioate and o phosphodiester by linkage. Methylation of C is not given here. e = 2'-O-(2-methoxyethyl) (MOE); k = constrained ethyl (cEt); d = 2'-deoxy (DNA)

Target: IRF4
Settings: ASO

Row | Sequence | target mRNA inhibition (SK-MEL-28, 4 µM) | target mRNA inhibition (MM.1R, 1 µM) | further results
1 | ACTAATACCTACCTGC (sugars k3 d10 k3, PS) | 48% |  | 
2 | ACTACTATTGTGGAAA (sugars k3 d10 k3, PS) | 18% |  | 
3 | ACTCACTGGTTCTGAA (sugars k3 d10 k3, PS) | 14% |  | 
4 | ACTCCATGAGGTTTTC (sugars k3 d10 k3, PS) | 73% |  | 
5 | ACTCTTAGGCACATCA (sugars k3 d10 k3, PS) |  | 27% | 
6 | ACTGACCTTTACTTCA (sugars k3 d10 k3, PS) | 43% |  | 
7 | ACTGCCGTGATCTGAG (sugars k3 d10 k3, PS) |  | 34% and 29% | 
8 | ACTGCTTGAGGTTTTC (sugars kddddddddddkekek, PS) |  | 22% | 
9 | ACTGCTTGAGGTTTTC (sugars kkdddddddddkdkdk, PS) |  | 19% | 
10 | ACTGGATTGATGTGAT (sugars k3 d10 k3, PS) |  | 25% and 39% | target mRNA inhibition (MM.1R, 0.0625 µM): 2% and 9%; target mRNA inhibition (MM.1R, 0.25 µM): 6% and 20%; target mRNA inhibition (MM.1R, 4 µM): 65% and 69%
11 | ACTGTCCACTGAGTAC (sugars k3 d10 k3, PS) | 61% |  | 
12 | ACTGTTACCGATGCTT (sugars k3 d10 k3, PS) |  | 43% and 25% | target mRNA inhibition (MM.1R, 0.0625 µM): -11%; target mRNA inhibition (MM.1R, 0.25 µM): 4%; target mRNA inhibition (MM.1R, 4 µM): 65%
13 | ACTGTTACCGATGCTT (sugars kdddddddddkekeke, PS) |  | -2% and 17% | 
14 | ACTTAACCCACATCAC (sugars k3 d10 k3, PS) | -22% |  | 
15 | AGAAACCCTCATCACC (sugars k3 d10 k3, PS) | -5% |  | 
16 | AGAAAGAAGCAAGTCG (sugars k3 d10 k3, PS) | 37% |  | 
17 | AGAACGCACGGACGAA (sugars k3 d10 k3, PS) |  | 1% | 
18 | AGAATAAACACCCCTT (sugars k3 d10 k3, PS) | 74% |  | 

Row | Sequence | target mRNA inhibition (SK-MEL-28, 4 µM) | target mRNA inhibition (MM.1R, 1 µM) | further results
19 | AGAGACCATGTTCAGA (sugars k3 d10 k3, PS) |  | 12% | 
20 | AGAGGAATGAGCACTC (sugars k3 d10 k3, PS) |  | 5% | 
21 | AGAGGAATGGCGGATA (sugars k3 d10 k3, PS) | 42% |  | 
22 | AGATCGAGCGGTGAAA (sugars k3 d10 k3, PS) | 24% |  | 
23 | AGATTAATAGTAAGTT (sugars k3 d10 k3, PS) | 4% |  | 
24 | AGATTTACACCGTTGC (sugars k3 d10 k3, PS) |  | 30% | 
25 | AGCAAAACGCAGAGCC (sugars k3 d10 k3, PS) | 61% |  | 
26 | AGCAAGGCCTCTGAGC (sugars k3 d10 k3, PS) | 55% |  | 
27 | AGCAGTAAACGCAAGT (sugars k3 d10 k3, PS) |  | 27% | 
28 | AGCAGTGATGTCAGGT (sugars k3 d10 k3, PS) |  | 84% and 68% | target mRNA inhibition (MM.1R, 0.0625 µM): 1%; target mRNA inhibition (MM.1R, 0.25 µM): 23%; target mRNA inhibition (MM.1R, 4 µM): 92%
29 | AGCAGTGATGTCAGGT (sugars kkdddddddddkekek, PS) |  | 66% and 67% and 64% | target mRNA inhibition (MM.1R, 0.0625 µM): 34%; target mRNA inhibition (MM.1R, 0.25 µM): 54%; target mRNA inhibition (MM.1R, 4 µM): 79%
30 | AGCATAGCATTATCTA (sugars k3 d10 k3, PS) | 34% |  | 
31 | AGCATCACTATTAAGA (sugars k3 d10 k3, PS) | 72% | 10% | target mRNA inhibition (MM.1R, 0.0625 µM): -5%; target mRNA inhibition (MM.1R, 0.074 µM): 2%; target mRNA inhibition (MM.1R, 0.222 µM): 10%; target mRNA inhibition (MM.1R, 0.25 µM): 1%; target mRNA inhibition (MM.1R, 0.666 µM): 10%; target mRNA inhibition (MM.1R, 2 µM): 11%; target mRNA inhibition (MM.1R, 4 µM): 26%
32 | AGCATCCGCTTGGAGA (sugars k3 d10 k3, PS) | 37% |  | 
33 | AGCATTATCTACCTCA (sugars k3 d10 k3, PS) | 78% |  | 
34 | AGCATTTTATCATCCG (sugars e1 k2 d9 k2 e2, PS) |  | 43% | 
35 | AGCATTTTATCATCCG (sugars k2 d9 e3 k2, PS) |  | 28% | 
36 | AGCATTTTATCATCCG (sugars k3 d9 k3 e1, PS) |  | 66% | target mRNA inhibition (MM.1R, 0.074 µM): 17%; target mRNA inhibition (MM.1R, 0.222 µM): 32%; target mRNA inhibition (MM.1R, 0.666 µM): 61%; target mRNA inhibition (MM.1R, 2 µM): 83%
